Assay results as given in patent US20230147993A1, “THIOPHENE COMPOUNDS WITH CYCLIC AMIDES, AND USES THEREOF” (Capulus Therapeutics, LLC, priority 2019, published 2023).

Legend:
ACACA = experiment: Gene expression in HepG2 cells (qPCR), ACACA; type: cell-based; settings: for 48 hours, normalized to β-Actin, relative to mock or vehicle treated cells (ΔΔCT)
Description: Gene Expression: The effect of selected compounds on the gene expression of HepG2 cells was evaluated. HepG2 cells (P2) were seeded in 24 well plate (80,000 cells/well) for RNA extraction and in a 96 well plate (10,000 cells/well) for Cell Titer Glow (CTG). The media used was DMEM and contained 10% FBS. Each compound was evaluated at […] for 48 hours. Two biological replicates per experimental group were evaluated for RNA. For gene analysis, RNA was harvested with RNEasy kit and 20-100 ng used to synthesize cDNA with random primers. Quantitative PCR was performed on 1 pg to 100 ng cDNA for the following genes: ACACA, ACLY, FASN, LSS, PNPLA3. Gene expression levels were normalized with housekeeping gene, β-Actin, and relative expression levels determined using ΔΔCT method comparing treated to mock or vehicle treated cells as a baseline. “Total” gene expression refers to the average of the values of the 5 genes listed above.

[1] = Stability in human liver microsomes; type: in vitro ADME; settings: 60 min at 37° C., NADPH
Description: (§1) Half-life Human Microsomes: Compounds were evaluated for stability in human liver microsomes. A 10 mM stock solution of the compound being evaluated was prepared in DMSO and diluted with water:acetonitrile (1:1) to a concentration of 1 mM. A working concentration of 100 μM was prepared by further dilution with water:acetonitrile (1:1). To make the preincubation mixture, 2.5 μL of the diluted compound was combined with 75 μL of human liver microsomes at 3.33 mg/mL, and 85 μL of 100 mM potassium phosphate buffer, and this mixture was pre-incubated for 10 min at 37° C. To make the 60 minute mixture without cofactor, 32.5 μL of the preincubation mixture was combined with 17.5 μL of 100 mM potassium phosphate buffer and incubated for 60 min at 37° C. To make the 0 min sample with cofactor (NADPH), 16.25 μL of the preincubation mixture was combined with 200 μL of acetonitrile containing internal standard and 8.75 μL of cofactor (NADPH). To make the incubation mixture, 62 μL of cofactor (2.85 mM) was combined with the remaining incubation mixture, and incubated for 60 min at 37° C. To prepare the sample mixture to be evaluated, 25 μL incubation mixture was combined with 200 μL of acetonitrile containing internal standard and vortexed for 5 min at 1200 rpm, then centrifuged for 10 min at 4000 rpm. The supernatant was diluted 2 fold with water and injected on LC-MS/MS. The sample mixture was evaluated by LC-MS/MS using 10 mM ammonium acetate with 0.1% FA as the aqueous mobile phase, and methanol as the organic mobile phase.

[2] = Stability in mouse liver microsomes; type: in vitro ADME
Description: as §1
Half-life Mouse Microsomes: Compounds were evaluated in mouse liver microsomes following a similar procedure as described above for human liver microsomes. A similar procedure could be used to evaluate compounds in rat liver microsomes.

SREBP = experiment: Reporter Screening Assay (SRE-luciferase reporter, HepG2); type: cell-based; settings: Homo sapiens, SREBPv1 Reporter cell line HepG2, 24 hours, 0.01 uM to 10 uM, read-out: I: Reporter Screening Assay (Ave EC50 (nM))
Description: Reporter Screening Assay: This assay was used to evaluate the effect on transcriptional activity SREBP of selected compounds using an SRE-luciferase reporter construct. On day 1, 10,000 cells were seeded in a 96 well (white) plate as per the plate map in Growth media without antibiotics. Cells were incubated at 37° C. for 8 hours. After 8 hours, cells were washed with DPBS for complete removal of FBS. DPBS was completely removed and Growth media was replaced with phenol free treatment medium (90 μl) with different FBS concentrations. The cells were then incubated at 37° C. for 24 hours with varying doses (0.01 uM to 10 uM) of compounds. Then a Luciferase assay was performed.
Reagents for performing Luciferase assay were stored at −20° C. To a tube of lyophilized assay substrate was added 1 mL Substrate Solvent and mixed well. The Substrate tube after reconstitution was covered with aluminum foil so as to keep it protected from light. The assay buffer was thawed to room temperature. To 20 mL Assay Buffer was added 200 µL of reconstituted 100× Substrate and mixed well. The reconstituted substrate as well as the assay solution (buffer + substrate) was protected from light throughout the procedure by keeping it covered with aluminum foil. Using a multi-channel pipette, 100 μL Assay Solution (buffer + substrate) was added directly to each sample well in Plate 1, which was incubated for 30 min (plate was covered with aluminum foil). After 30 min incubation, the plate was read for total luminescence. Each well was read for 2 seconds in a plate luminometer. (Microplate reader Envision Microplate reader from Perkin Elmer). Precaution was taken to incubate plate exactly for 30 min prior to reading on the plate reader.
Reporter Assay Materials: SREBPv1 Reporter cell line: HepG2-#32251. Growth Medium: MEM (Corning 10-010), 10% FBS, 1% GlutaMax (Invitrogen Catalog #35050061), […] (Invitrogen Catalog #A1113803) and 1% Penicillin-Streptomycin (Pen-Strep). Treatment Media: Phenol-free MEM (Invitrogen Catalog #51200-038) and 1% GlutaMax (Invitrogen Catalog #35050061). Luciferase Assay: LightSwitch Luciferase Assay Kit (Catalog #32032). LDH assay: Pierce LDH Cytotoxicity Assay Kit (Catalog #SD249616).

Row | Compound | percent remaining after 60 min in human liver microsomes [1] | percent remaining after 60 min in mouse liver microsomes [2] | EC50 (SREBP) [nM] | A: ACACA, effect of compounds on gene expression of HepG2 cells (ACACA)
1 | O=C(c1ccc(-c2cc(-c3ccnc(OC4CC4)c3)cs2)c(Cl)c1)N1CCC(O)CC1 [Compound I-1629059, (3-chloro-4-(4-(2-cyclopropoxypyridin-4-yl)thiophen-2-yl)phenyl)(4-hydroxypiperidin-1-yl)methanone] | +++ (≥60.1 = +++) | +++ (≥60.1 = +++) | < 249 | ++ (0.31-0.7509 = ++)
2 | CC1(O)CCN(C(=O)c2ccc(-c3cc(-c4ccnc(C5(CO)CC5)c4)cs3)c(Cl)c2)CC1 [Compound I-1629069, (3-chloro-4-(4-(2-(l-(hydroxymethyl)cyclopropyl)pyridin-4-yl)thiophen-2-yl)phenyl)(4-hydroxy-4-methylpiperidin-1-yl)methanone] | + (0-30 = +) | + (0-30 = +) | > 500 | + (>0.751 = +)
3 | O=C(c1ccc(-c2cc(-c3ccnc(C4(O)CCC4)c3)cs2)c(Cl)c1)N1CCC(O)CC1 [Compound I-1629076, (3-chloro-4-(4-(2-(1-hydroxycyclobutyl)pyridin-4-yl)thiophen-2-yl)phenyl)(4-hydroxypiperidin-1-yl)methanone] | +++ (≥60.1 = +++) | +++ (≥60.1 = +++) | < 249 | ++ (0.31-0.7509 = ++)
4 | O=C(c1ccc(-c2cc(-c3ccnc(CC4(O)CCC4)c3)cs2)c(Cl)c1)N1CCC(O)CC1 [Compound I-1629077, (3-chloro-4-(4-(2-((1-hydroxycyclobutyl)methyl)pyridin-4-yl)thiophen-2-yl)phenyl)(4-hydroxypiperidin-1-yl)methanone] | + (0-30 = +) | ++ (30.1-60 = ++) | < 249 | ++ (0.31-0.7509 = ++)
5 | O=C(c1ccc(-c2cc(-c3ccnc(CC4(F)CCC4)c3)cs2)c(Cl)c1)N1CCC(O)CC1 [Compound I-1629078, (3-chloro-4-(4-(2-((1-fluorocyclobutyl)methyl)pyridin-4-yl)thiophen-2-yl)phenyl)(4-hydroxypiperidin-1-yl)methanone] | + (0-30 = +) | +++ (≥60.1 = +++) | < 249 | ++ (0.31-0.7509 = ++)
6 | O=C(c1ccc(-c2cc(-c3ccnc(C4(O)COC4)c3)cs2)c(Cl)c1)N1CCC(O)CC1 [Compound I-1629083, (3-chloro-4-(4-(2-(3-hydroxyoxetan-3-yl)pyridin-4-yl)thiophen-2-yl)phenyl)(4-hydroxypiperidin-1-yl)methanone] | +++ (≥60.1 = +++) | +++ (≥60.1 = +++) | 250 to 500 | + (>0.751 = +)

Continued, in another order:

Row | percent remaining after 60 min in human liver microsomes [1] | percent remaining after 60 min in mouse liver microsomes [2] | EC50 (SREBP) [nM] | Compound | A: ACACA, effect of compounds on gene expression of HepG2 cells (ACACA)
7 | ++ (30.1-60 = ++) | ++ (30.1-60 = ++) | < 249 | O=C(c1ccc(-c2cc(-c3ccnc4c3OCCO4)cs2)c(Cl)c1)N1CCC(O)CC1 [Compound I-1629066, (3-chloro-4-(4-(2,3-dihydro-[1,4]dioxino[2,3-b]pyridin-8-yl)thiophen-2-yl)phenyl)(4-hydroxypiperidin-1-yl)methanone] | ++ (0.31-0.7509 = ++)
8 | + (0-30 = +) | + (0-30 = +) | < 249 | O=C(c1ccc(-c2cc(-c3ccnc4c3OCCN4)cs2)c(Cl)c1)N1CCC(O)CC1 [Compound I-1629067, (3-chloro-4-(4-(3,4-dihydro-2H-pyrido[3,2-b][1,4]oxazin-8-yl)thiophen-2-yl)phenyl)(4-hydroxypiperidin-1-yl)methanone] | ++ (0.31-0.7509 = ++)
9 | ++ (30.1-60 = ++) | + (0-30 = +) | < 249 | O=C(c1ccc(-c2cc(-c3ccnc4c3NCCN4)cs2)c(Cl)c1)N1CCC(O)CC1 [Compound I-1629068, (3-chloro-4-(4-(l,2,3,4-tetrahydropyrido[2,3-b]pyrazin-8-yl)thiophen-2-yl)phenyl)(4-hydroxypiperidin-1-yl)methanone] | ++ (0.31-0.7509 = ++)
10 | + (0-30 = +) | ++ (30.1-60 = ++) | < 249 | O=C(c1ccc(-c2cc(-c3ccnc4c3NCCO4)cs2)c(Cl)c1)N1CCC(O)CC1 [Compound I-1629084, (3-chloro-4-(4-(2,3-dihydro-1H-pyrido[2,3-b][l,4]oxazin-8-yl)thiophen-2-yl)phenyl)(4-hydroxypiperidin-1-yl)methanone] | ++ (0.31-0.7509 = ++)
